Consider 27 compounds from ChEMBL document CHEMBL3217601, “Optimized glucuronidation of dual pharmacology -2 agonists/M3 antagonists for the treatment of COPD” (Medchemcomm, 2011).

Data set [1] addresses Beta-1 adrenergic receptor (Homo sapiens, UniProt P08588). The data set is described as follows: Agonist activity at beta-1 adrenoceptor (unknown origin).
The nature of data set [2]: Intrinsic clearance in human liver microsomes assessed as glucuronidation in absence of NADPH and presence of microsomal activator Brij58 and UDPGA. In general terms: Liver microsomes are vesicles of endoplasmic reticulum, rich in cytochrome P450 enzymes.
The target of data set [3] is Beta-2 adrenergic receptor (Homo sapiens, UniProt P07550). The data set can be described thus: Agonist activity at human beta-2 adrenoceptor expressed in CHO cells assessed as stimulation of intracellular cAMP production. The data set is classed as functional, cell-based. On the technique in general: Cyclic AMP is a second messenger, typically raised through Gs and lowered through Gi signalling.
Chain of Beta-2 adrenergic receptor (P07550 whole entry): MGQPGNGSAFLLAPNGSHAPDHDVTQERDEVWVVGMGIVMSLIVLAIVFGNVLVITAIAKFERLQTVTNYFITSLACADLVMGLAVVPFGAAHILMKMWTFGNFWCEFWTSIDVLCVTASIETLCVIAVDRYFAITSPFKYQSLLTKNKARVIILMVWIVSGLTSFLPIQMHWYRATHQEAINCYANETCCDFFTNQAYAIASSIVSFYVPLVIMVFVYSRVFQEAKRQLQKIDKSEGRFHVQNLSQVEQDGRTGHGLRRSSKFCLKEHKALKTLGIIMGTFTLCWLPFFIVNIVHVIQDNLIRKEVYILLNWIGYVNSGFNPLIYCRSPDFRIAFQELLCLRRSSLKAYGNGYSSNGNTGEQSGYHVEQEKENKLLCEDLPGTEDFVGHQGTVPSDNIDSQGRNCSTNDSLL

In data set [4] the target is Muscarinic acetylcholine receptor M3 (Homo sapiens, UniProt P20309). The data set is described as follows: Displacement of [3H]-N-methyl scopolamine from human cloned muscarinic M3 receptor. (In a radioligand displacement assay an active substance lowers the binding of a labelled ligand.)
Chain of Muscarinic acetylcholine receptor M3 (P20309 whole entry): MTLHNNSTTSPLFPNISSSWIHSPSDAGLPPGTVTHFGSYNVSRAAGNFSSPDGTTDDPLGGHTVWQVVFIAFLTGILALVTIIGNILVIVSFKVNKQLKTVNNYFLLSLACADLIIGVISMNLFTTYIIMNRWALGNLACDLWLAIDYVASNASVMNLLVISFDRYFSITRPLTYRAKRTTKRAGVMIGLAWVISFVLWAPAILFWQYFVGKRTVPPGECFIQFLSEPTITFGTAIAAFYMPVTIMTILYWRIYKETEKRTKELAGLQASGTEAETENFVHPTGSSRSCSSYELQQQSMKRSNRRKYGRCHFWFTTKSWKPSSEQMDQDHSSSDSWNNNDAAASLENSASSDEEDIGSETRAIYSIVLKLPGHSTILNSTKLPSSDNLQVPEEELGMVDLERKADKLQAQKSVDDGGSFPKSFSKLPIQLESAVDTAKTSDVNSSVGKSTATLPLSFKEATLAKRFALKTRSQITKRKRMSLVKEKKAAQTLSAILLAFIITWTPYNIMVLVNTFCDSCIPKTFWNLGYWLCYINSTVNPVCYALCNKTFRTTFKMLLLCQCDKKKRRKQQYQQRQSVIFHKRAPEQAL
The nature of data set [5]: Drug metabolism of the compound in human liver microsomes assessed as glucuronidation in absence of NADPH and presence of microsomal activator Brij58 and UDPGA.
Data set [6] is described as follows: Therapeutic index, ratio of cardiovascular toxicity in dog to bronchodilatory activity in intratracheally dosed dog. Type of data set: organism-based, Canis lupus familiaris, Trachea. The following applies: in vivo, inhaled or intranasal, read-out: TI.

The EC50 is the concentration needed to bring the measured effect to its halfway point. A word on the microsomal CLint: it is the rate of metabolic loss divided by the concentration. As usually defined, the Ki is a dissociation constant, usually derived from enzyme kinetics or from competition with a known ligand.

Bounds are passed on as bounds.

Chain of Beta-1 adrenergic receptor (P08588 whole entry): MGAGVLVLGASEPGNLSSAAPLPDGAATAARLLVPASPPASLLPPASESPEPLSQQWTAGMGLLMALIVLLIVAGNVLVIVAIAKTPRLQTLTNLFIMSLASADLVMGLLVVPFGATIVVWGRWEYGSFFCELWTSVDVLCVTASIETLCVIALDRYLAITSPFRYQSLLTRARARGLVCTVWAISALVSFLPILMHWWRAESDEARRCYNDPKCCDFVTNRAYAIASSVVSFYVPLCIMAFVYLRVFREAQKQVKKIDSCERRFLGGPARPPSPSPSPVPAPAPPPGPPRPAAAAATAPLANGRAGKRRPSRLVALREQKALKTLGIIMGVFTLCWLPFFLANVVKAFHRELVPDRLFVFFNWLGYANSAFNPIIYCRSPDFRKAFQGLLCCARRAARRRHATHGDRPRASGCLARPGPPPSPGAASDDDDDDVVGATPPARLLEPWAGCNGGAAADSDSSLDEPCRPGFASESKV

`O=C(Nc1ccccc1-c1ccccc1)OC1CCN(CCCCCCCCCNC[C@H](O)c2ccc(O)c3[nH]c(=O)ccc23)CC1`: the EC50 in data set [1] is over 10000 nM.
Take `CS(=O)(=O)Nc1cc([C@@H](O)CNCCCCCCCCCN2C[C@@H]3[C@@H](COC(=O)Nc4ccccc4-c4ccc(O)c(Cl)c4)[C@@H]3C2)ccc1O`: the microsomal CLint in data set [2] was 7 µL/min/mg; in data set [5] it was 13 µL/min/mg. In addition, the EC50 in data set [1] is over 10000 nM; in data set [3] it was 42 nM. The compound also displayed a Ki in data set [4] of 1.3 nM.
In the case of `Cc1cc(C)c(NC(=O)OC2CCN(CCCCCCCCCNC[C@H](O)c3ccc(O)c(NS(C)(=O)=O)c3)CC2)c(-c2ccc(O)c(Cl)c2)c1`, the figures for the microsomal CLint in data set [2] and in data set [5] were 79 µL/min/mg and 32 µL/min/mg, respectively. In addition, the figures for the concentration for a half-maximal effect (EC50) in data set [1] and in data set [3] were over 10000 nM and 36 nM, respectively. Also, affinity in data set [4] was put at a Ki of 38 nM.
The compound `CS(=O)(=O)Nc1cc([C@@H](O)CNCCCCCCCCCN2CCC(OC(=O)Nc3ccccc3-c3cccc(F)c3O)CC2)ccc1O` gave an EC50 in data set [1] of over 10000 nM. This compound also had a Ki in data set [4] of 10 nM. Moreover, in data set [5], the microsomal CLint is under 2 µL/min/mg.
Turning to `CS(=O)(=O)Nc1cc([C@@H](O)CNCCCCCCCCN2CCC(OC(=O)Nc3ccccc3-c3ccc(O)c(Cl)c3)CC2)ccc1O`, the microsomal CLint stood at 17 µL/min/mg in data set [2] and 24 µL/min/mg in data set [5]. The EC50 was over 10000 nM in data set [1] and 20 nM in data set [3]. In data set [4], this compound registered a Ki of 1.1 nM.
The corresponding values for `CS(=O)(=O)Nc1cc([C@@H](O)CNCCCCCCCCCN2C[C@H]3C[C@@]3(COC(=O)Nc3ccccc3-c3ccc(O)c(Cl)c3)C2)ccc1O` are 49 µL/min/mg, 28 µL/min/mg, over 10000 nM, 17 nM and 4.3 nM.
The corresponding values for `CS(=O)(=O)Nc1cc([C@@H](O)CNCCCCCCCCCN2CC[C@@H](OC(=O)Nc3ccccc3-c3ccc(O)c(Cl)c3)C2)ccc1O` are 39 µL/min/mg, 51 µL/min/mg, over 10000 nM, 24 nM and 9.2 nM.
For `CS(=O)(=O)Nc1cc([C@@H](O)CNCCCCCCCCCN2CCC(OC(=O)Nc3ccccc3-c3ccccc3O)CC2)ccc1O`, in that order: 17 µL/min/mg, under 2 µL/min/mg, over 10000 nM, 90 nM and 18 nM.
`Cc1ccc(NC(=O)OC2CCN(CCCCCCCCCNC[C@H](O)c3ccc(O)c(NS(C)(=O)=O)c3)CC2)c(-c2ccc(O)c(Cl)c2)c1`: the results for the microsomal CLint in data set [2] and in data set [5] were 22 µL/min/mg and 19 µL/min/mg, respectively. The compound further yielded an EC50 in data set [1] of over 10000 nM. Further, in data set [4], the Ki was 4.8 nM.
In the case of `CS(=O)(=O)Nc1cc([C@@H](O)CNCCCCCCCCCN2CCC(OC(=O)Nc3ccccc3-c3ccccc3)CC2)ccc1O`, the values for the microsomal CLint in data set [2] and in data set [5] were 40 µL/min/mg and under 2 µL/min/mg, respectively. Moreover, the figures for the EC50 in data set [1] and in data set [3] were over 10000 nM and 74 nM, respectively. In addition, in data set [4], affinity was put at a Ki of 0.39 nM.
For `CS(=O)(=O)Nc1cc([C@@H](O)CNCCCCCCCCCN2CCC(OC(=O)Nc3ccccc3-c3cc(F)c(O)cc3F)CC2)ccc1O`, in that order: 13 µL/min/mg, 90 µL/min/mg, over 10000 nM, 22 nM and 8.3 nM.
As for `CS(=O)(=O)Nc1cc([C@@H](O)CNCCCCCCCCCN2CCC(OC(=O)Nc3ccccc3-c3cc(C#N)ccc3O)CC2)ccc1O`, the figures for the microsomal CLint in data set [2] and in data set [5] were 33 µL/min/mg and 3.7 µL/min/mg, respectively. Moreover, the 50% effective concentration (EC50) in data set [1] was over 10000 nM. Also, in data set [4], the Ki was over 73 nM.
As to `OCc1cc(C(O)CNCCCCCCOCCCCc2ccccc2)ccc1O` (stereo unspecified) [SALMETEROL], the selectivity ratio in data set [6] worked out at 3.
As for `CS(=O)(=O)Nc1cc([C@@H](O)CNCCCCCCCCCN2CCC(OC(=O)Nc3ccccc3-c3ccc(F)cc3O)CC2)ccc1O`, the results for the intrinsic clearance (microsomal CLint) in data set [2] and in data set [5] were 8.8 µL/min/mg and under 2 µL/min/mg, respectively. Also, in data set [1], the 50% effective concentration (EC50) is over 10000 nM. Further, in data set [4], the Ki stood at 26 nM.
Take `CS(=O)(=O)Nc1cc([C@@H](O)CNCCCCCCCCCN2CCC(OC(=O)Nc3cc(F)ccc3-c3ccc(O)c(Cl)c3)CC2)ccc1O`: the microsomal CLint in data set [2] stood at 15 µL/min/mg; in data set [5], 6 µL/min/mg. The EC50 in data set [1] was over 10000 nM; in data set [3] it was 57 nM. Besides, the affinity in data set [4], expressed as Ki, was 4.4 nM.
For `CS(=O)(=O)Nc1cc([C@@H](O)CNCCCCCCCCCN2C3CCC2CC(OC(=O)Nc2ccccc2-c2ccc(O)c(Cl)c2)C3)ccc1O` (stereo partly specified), in that order: 8 µL/min/mg, 7.8 µL/min/mg, over 10000 nM, 23 nM and 8.9 nM.
The corresponding values for `Cc1ccc(-c2ccc(O)c(Cl)c2)c(NC(=O)OC2CCN(CCCCCCCCCNC[C@H](O)c3ccc(O)c(NS(C)(=O)=O)c3)CC2)c1` are 29 µL/min/mg, 6 µL/min/mg, over 10000 nM, 14 nM and 2 nM.
The corresponding values for `CS(=O)(=O)Nc1cc([C@@H](O)CNCCc2ccc(OCCCN3CCC(OC(=O)Nc4ccccc4-c4ccc(O)c(Cl)c4)CC3)cc2)ccc1O` are 33 µL/min/mg, 29 µL/min/mg, over 10000 nM, 13 nM and 3.1 nM.
Consider `CS(=O)(=O)Nc1cc([C@@H](O)CNCCCCCCCCCCCN2CCC(OC(=O)Nc3ccccc3-c3ccc(O)c(Cl)c3)CC2)ccc1O`, for which the values for the microsomal CLint in data set [2] and in data set [5] were 45 µL/min/mg and 16 µL/min/mg, respectively. The EC50 in data set [1] was over 10000 nM; in data set [3], 195 nM. In data set [4], this compound gave a Ki of 4.4 nM.
In the case of `CS(=O)(=O)Nc1cc([C@@H](O)CNCCCCCCCCCN2CCC(OC(=O)Nc3ccccc3-c3ccc(O)c(F)c3)CC2)ccc1O`, the microsomal CLint in data set [2] was determined as 16 µL/min/mg; in data set [5], 30 µL/min/mg. The values for the EC50 in data set [1] and in data set [3] were over 10000 nM and 26 nM, respectively. The compound further yielded an inhibitory constant (Ki) in data set [4] of 5 nM.
As to `CS(=O)(=O)Nc1cc([C@@H](O)CNCCCCCCCCCN2CCC(OC(=O)Nc3ccccc3-c3ccc(O)cc3)CC2)ccc1O`, the microsomal CLint in data set [2] came out at 20 µL/min/mg; in data set [5], 4 µL/min/mg. Moreover, the figures for the EC50 in data set [1] and in data set [3] were over 10000 nM and 26 nM, respectively. The compound also yielded an inhibition constant (Ki) in data set [4] of 2.2 nM.
For `CS(=O)(=O)Nc1cc([C@@H](O)CNCCCCCCCCCN2CCC(OC(=O)Nc3ccccc3-c3cccc(O)c3)CC2)ccc1O`, in that order: 26 µL/min/mg, under 3.5 µL/min/mg, over 10000 nM, 129 nM and 3.7 nM.
Regarding `CS(=O)(=O)Nc1cc([C@@H](O)CNCCc2ccc(OCCN3CCC(OC(=O)Nc4ccccc4-c4ccc(O)c(Cl)c4)CC3)cc2)ccc1O`, the microsomal CLint in data set [2] came out at 74 µL/min/mg; in data set [5] it was 48 µL/min/mg. For the same compound, in data set [1], the EC50 is over 10000 nM. Besides, in data set [4], affinity was put at a Ki of 36 nM.
On to `CS(=O)(=O)Nc1cc([C@@H](O)CNCCCCCCCCCCN2CCC(OC(=O)Nc3ccccc3-c3ccc(O)c(Cl)c3)CC2)ccc1O`, for which the figures for the microsomal CLint in data set [2] and in data set [5] were 34 µL/min/mg and 22 µL/min/mg, respectively. Also, the EC50 in data set [1] is over 10000 nM; in data set [3], 21 nM. The Ki in data set [4] was 2 nM.
Turning to `CS(=O)(=O)Nc1cc([C@@H](O)CNCCCCCCCCCN2CCC(OC(=O)Nc3ccccc3-c3cc(O)cc(F)c3)CC2)ccc1O`, the figures for the intrinsic metabolic clearance (microsomal CLint) in data set [2] and in data set [5] were 28 µL/min/mg and 4 µL/min/mg, respectively. The figures for the EC50 in data set [1] and in data set [3] were over 10000 nM and 65 nM, respectively. Also, in data set [4], the Ki worked out at 76 nM.
Take `CS(=O)(=O)Nc1cc([C@@H](O)CNCCCCCCCCCN2CCC(OC(=O)Nc3ccc(F)cc3-c3ccc(O)c(Cl)c3)CC2)ccc1O`: the intrinsic metabolic clearance (microsomal CLint) in data set [2] is 25 µL/min/mg; in data set [5] it was 17 µL/min/mg. The EC50 in data set [1] is over 10000 nM; in data set [3] it was 23 nM. This compound showed a Ki in data set [4] of 1.1 nM.
For `CS(=O)(=O)Nc1cc([C@@H](O)CNCCCCCCCCCN2CCC(OC(=O)Nc3ccccc3-c3cc(F)cc(F)c3O)CC2)ccc1O`, in that order: 20 µL/min/mg, under 3.5 µL/min/mg, over 10000 nM, 102 nM and 22 nM.
